Results as given in patent US20170189391A1, “Protein kinase C inhibitor for treating triple-negative breast cancer” (Macau University of Science ang Technology, priority 2015, published 2017).

Experiments:
non-TNBC cells [1] = assay: Colony formation assay; format: cell-based, human; details: treatment for 48 hours, chelerythrine 5 μM (FIG. 1C)
Procedure: (§1) Four non-triple-negative breast cancer (Non-TNBC) cell lines (MCF7, ZR-75-1, SK-BR-3 and MDA-MB-453) and four triple-negative breast cancer (TNBC) cell lines (MDA-MB-231, BT549, HCC1937 and MDA-MB-468) were used to determine the growth inhibition effect of chelerythrine. […] The cell number at each chelerythrine concentration is represented as a percentage of control (treatment without chelerythrine). Average values are calculated from three independent experiments performed in duplicate (n=3). […] The cell number at each time point is represented as a percentage of control (treatment without chelerythrine). Average values are calculated from three independent experiments performed in duplicate (n=3). […] Representative colony formation assay plates are shown, which are quantified by counting colony number (n=4). Data is shown as mean±SD. […] Cells were then washed with PBS, plated in drug-free medium in 6-well plates at densities of 2,000 cells/well and incubated for 7-10 days in the absence of drug. Colonies were stained with 0.2% (w/v) crystal violet in buffered formalin for 10 minutes. The number of colonies was counted.

TNBC cells [2] = assay: Colony formation assay; format: cell-based, human; details: chelerythrine 5 μM (FIG. 1C)
Procedure: as §1

T-549 = assay: Flow-cytometric analysis of apoptosis (Annexin V/PI); format: cell-based, human; details: T-549 (so in the source), 24 hours, chelerythrine 5 μM (FIG. 3)
Procedure: (§2) Four Non-TNBC cell lines and four TNBC cell lines as mentioned above were treated with chelerythrine (CHE, 5 μM) for 24 hours. […] Reprehensive pictures are shown (400×). […] FIGS. 3C, 3D and 3E show the representative contour diagrams of FITC Annexin V/PI flow cytometry of cells. Fractions of apoptotic cells were quantified. Average values are calculated from three independent experiments (n=3). […] Apoptosis was analyzed by flow cytometry with Annexin V/PI staining. Representative contour diagrams and quantified data are shown. Average values are calculated from three independent experiments (n=3). Data is shown as mean±SD.
(§3) Cellular apoptosis was analyzed with BD Annexin V: Fitc Apoptosis Detection Kit I (BD Bioscience) by flow cytometry. Briefly cells were plated in 6-well plates (100,000˜400,000 cells/well) and treated with chelerythrine. At the indicated time point, cells were harvested, washed twice with cold PBS, and resuspended in 1X Binding Buffer at a concentration of 1,000,000 cells/ml. 100 μl cells were transferred to 1.5 ml conical tube and 5 μl FITC Annexin V and 5 μl propidium iodide were added. The mixture was gently vortexed and incubated at room temperature for 15 minutes in the dark, followed by adding 400 μl 1x Binding Buffer to each tube. Cells were filtered and analyzed by flow cytometry (BD Bioscience) within 1 hour. Total apoptotic cells (FITC Annexin V positive) were counted.

MDA-MB-468 [3] = assay: as above; format: cell-based, human; details: MDA-MB-468, 24 hours, chelerythrine 5 μM (FIG. 3)
Procedure: as §2, §3

four non-TNBC cell lines = assay: as above; format: cell-based, human; details: same treatment, 24 hours
Procedure: as §2, §3

MDA-MB-231 [4] = assay: as above; format: cell-based, human; details: MDA-MB-231, 24 hours, chelerythrine 5 μM (FIG. 3)
Procedure: as §2, §3

HCC1937 [5] = assay: as above; format: cell-based, human; details: HCC1937, 24 hours, chelerythrine 5 μM (FIG. 3)
Procedure: as §2, §3

non-TNBC cells [6] = assay: Assessment of cell morphological changes (Hoechst 33258 staining); format: cell-based, human; details: 24 hours
Procedure: as §2
(§4) Cells were plated in 12-well plates (80,000-300,000 cells/well) and then treated with […] chelerythrine for 24 hours. After incubation, cells were collected, washed with PBS and stained with Hoechst 33258 (11.1 mg/ml) in buffered formalin solution containing 5.6% NP-40. Living and apoptotic cells were visualized through DAPI filter of fluorescence inverted microscope (Leica DM2500 Fluorescence Microscope) at ×400 magnification.

TNBC cells [7] = assay: as above; format: cell-based, human; details: 24 hours
Procedure: as §2, §4

non-TNBC cells [8] = assay: Flow-cytometric analysis of cell cycle; format: cell-based, human; details: chelerythrine 5 mM (so in the source), 24 hours
Procedure: (§5) Four Non-TNBC cell lines and four TNBC cell lines as mentioned above were treated with chelerythrine (CHE, 5 μM) for 24 hours. […] Average values are calculated from three independent experiments (n=3). Data is shown as mean±SD.
(§6) Flow cytometric analyses were performed to define the cell cycle distribution […] after treatment with […] chelerythrine. Cells were harvested, washed twice with PBS, resuspended in 0.5 ml PBS (1,000,000˜2,000,000 cells/ml). Then 4 ml 70% ethanol was added and the mixture was kept at −20° C. for 2 hours to fix the cells. Cells were stained for total DNA content with a solution containing […] propidium iodide, 200 μg/ml DNase-free RNase A, and 0.1% triton X-100 in PBS for 30 minutes at room temperature. Cell cycle distribution was analyzed by flow cytometry (BD Bioscience). The percentages of the total cell population in the four different phases (Sub-G0/G1, G0/G1, S, G2/M) of cell cycle was determined using FlowJo software.

MDA-MB-468 [9] = assay: Flow-cytometric analysis of cell cycle; format: cell-based, human; details: MDA-MB-468, chelerythrine 5 mM (so in the source), 24 hours
Procedure: as §5, §6

MDA-MB-231 [10] = assay: Flow-cytometric analysis of cell cycle; format: cell-based, human; details: MDA-MB-231, chelerythrine 5 mM (so in the source), 24 hours
Procedure: as §5, §6

BT-549 [11] = assay: Flow-cytometric analysis of cell cycle; format: cell-based, human; details: BT-549, chelerythrine 5 mM (so in the source), 24 hours
Procedure: as §5, §6

HCC1937 [12] = assay: Flow-cytometric analysis of cell cycle; format: cell-based, human; details: HCC1937, chelerythrine 5 mM (so in the source), 24 hours; 45.1% without treatment
Procedure: as §5, §6

MDA-MB-468 [13] = assay: In vitro cell proliferation assay (SRB assay); format: cell-based; details: Homo sapiens; MDA-MB-468 (TNBC), 72-hour treatment
Procedure: (§7) The anti-proliferative effects of tested agents on breast cancer cell lines were assessed by sulforhodamine B (SRB) colorimetric assay as previously described. Briefly, cells were seeded in 96-well plates in a volume of […] at densities of 5,000˜40,000 cells per well. After overnight incubation at 37° C. in a humidified incubator with 5% CO2, 100 ml medium containing agents (2 X indicated concentrations) were added. After 72-hour treatment, attached cells were fixed with 50 ml cold 50% (w/v) trichloroacetic acid (TCA) for 1 hour at 4° C. and then stained with 100 ml 0.4% (w/v) SRB. The absorbency at 515 nm was measured using SpectraMax 190 microplate reader (Molecular Devices) after solubilizing the protein-bound dye with 200 ml 10 mM Tris base solution (pH 10.5). The IC50 value was defined as the concentration required for a 50% reduction in cell growth.
(§8) To test in vitro anti-proliferative activity of chelerythrine on breast cancer cells, four TNBC cell lines (MDA-MB-231, BT-549, HCC1937 and MDA-MB-468) and four non-TNBC cell lines (MCF7, ZR-75-1, SK-BR-3 and MDA-MB-453) were treated with a series of chelerythrine concentrations ranging from […] for 72 hours. […] On the contrary, the tested non-TNBC cell lines were relatively resistant to chelerythrine treatment on compared with the TNBC cell lines.

MCF7 = assay: In vitro cell proliferation assay (SRB assay); format: cell-based; details: Homo sapiens; MCF7 (Non-TNBC), 72-hour treatment
Procedure: as §7, §8

MDA-MB-231 [14] = assay: In vitro cell proliferation assay (SRB assay); format: cell-based; details: Homo sapiens; MDA-MB-231 (TNBC), 72-hour treatment
Procedure: as §7, §8

BT-549 [15] = assay: In vitro cell proliferation assay (SRB assay); format: cell-based; details: Homo sapiens; BT-549 (TNBC), 72-hour treatment
Procedure: as §7, §8

SK-BR-3 = assay: In vitro cell proliferation assay (SRB assay); format: cell-based; details: Homo sapiens; SK-BR-3 (Non-TNBC), 72-hour treatment
Procedure: as §7, §8

HCC1937 [16] = assay: In vitro cell proliferation assay (SRB assay); format: cell-based; details: Homo sapiens; HCC1937 (TNBC), 72-hour treatment
Procedure: as §7, §8

all TNBC cell lines = assay: Flow-cytometric analysis of cell cycle, all TNBC lines; format: cell-based, human; details: upon chelerythrine treatment, 24 hours
Procedure: as §5, §6

[17] = system: TNBC cell lines (MDA-MB-231, BT-549, HCC1937 and MDA-MB-468); assay: In vitro cell proliferation assay (SRB assay), four TNBC lines together; format: cell-based, human; details: for cell growth: 5 mM (so in the source) chelerythrine
Procedure: as §7, with “After 72-hour treatment, attached cells were fixed with 50 ml cold 50% (w/v) trichloroacetic acid (TCA) for 1 hour at 4° C. and then stained with 100 ml 0.4% (w/v) SRB.” left out
as §8

TNBC cell lines = assay: Western blotting of cleaved PARP (cPARP); format: cell-based, human; details: TNBC compared with non-TNBC cell lines, after chelerythrine treatment
Procedure: as §2
Protein samples were prepared by adding RIPA buffer with protease inhibitor cocktail (Roche) to cells and diluted in SDS-PAGE protein sample buffer. Samples were heated for 5 minutes at 95° C. before fractionation on SDS-polyacrylamide gels. The proteins were then transferred to Immobilon P (Millipore) and incubated with primary antibodies overnight at 4° C. The membranes were then washed with TBST and incubated with the appropriate horseradish peroxidase-conjugated secondary antibodies at room temperature. Proteins were visualized with SuperSignal West Dura Extended Duration Substrate or SuperSignal West Pico Chemiluminescent Substrate (Thermo Scientific).

[18] = system: non-TNBC cell lines (MCF7, ZR-75-1, SK-BR-3 and MDA-MB-453); assay: In vitro cell proliferation assay (SRB assay), four non-TNBC lines together; format: cell-based, human
Procedure: as §7, §8

MDA-MB-453 = assay: In vitro cell proliferation assay (SRB assay); format: cell-based, human; set-up: inhibitory effect at the highest concentration tested: dose or concentration left out as unconfirmed
Procedure: as §7, §8

ZR-75-1 = assay: In vitro cell proliferation assay (SRB assay); format: cell-based, human; set-up: inhibitory effect at the highest concentration tested: dose or concentration left out as unconfirmed
Procedure: as §7, §8

COc1ccc2c(c[n+](C)c3c4cc5c(cc4ccc23)OCO5)c1OC [chelerythrine]
colony formation ability (non-TNBC cells [1]): reserved largely of their colony formation ability
colony formation ability (TNBC cells [2]; treatment for 3 hours): dramatically decreased
Colony formation (TNBC cells [2]; treatment for 6 hours): almost no cells grew into colonies
mean percentages of apoptotic cells (T-549): 51.0%
mean percentages of apoptotic cells (MDA-MB-468 [3]): 35.3%
apoptosis induction / viability (four non-TNBC cell lines): remained viable
mean percentages of apoptotic cells (MDA-MB-231 [4]): 67.8%
mean percentages of apoptotic cells (HCC1937 [5]): 22.2%
apoptotic morphological changes (non-TNBC cells [6]): not in non-TNBC cells
apoptotic morphological changes (TNBC cells [7]): caused chromatin condensation and nuclear fragmentation
cell cycle distribution (non-TNBC cells [8]): basically unchanged
cell cycle arrest (MDA-MB-468 [9]): marked cell cycle arrest at G2/M phase
cell cycle progression (MDA-MB-231 [10]): no obvious changes
cell cycle progression (BT-549 [11]): no obvious changes
percentage of cells in G0/G1 phase (HCC1937 [12]): 52.9%
IC50 (MDA-MB-468 [13]): 4.2 µM
IC50 (MCF7): > 10 µM
IC50 (MDA-MB-231 [14]): 3 µM
IC50 (BT-549 [15]): 2.6 µM
IC50 (SK-BR-3): > 10 µM
IC50 (HCC1937 [16]): 3.6 µM
nuclei with sub-G0/G1 DNA content characteristic of apoptosis (all TNBC cell lines): substantial proportion
cell growth ([17]; 24 hour): significant reduction of cell growth
cell growth ([17]; 72 hour): almost died out
IC50 ([17]; Homo sapiens, range over MDA-MB-231, BT-549, HCC1937 and MDA-MB-468, 72 hours, read-out: IC50 values, growth of TNBC cell lines): 2.6 to 4.2 µM
cleaved nuclear poly (ADP-ribose) polymerase (cPARP), marker of apoptosis (TNBC cell lines): detection of the cleaved nuclear poly (ADP-ribose) polymerase
inhibition of cell growth ([18]; 5 mM (so in the source) chelerythrine, each time point, versus TNBC lines): much less inhibition of cell growth
IC50 ([18]; Homo sapiens, 72 hours, read-out: IC50 values of all of the four non-TNBC cell lines): > 10 µM
IC50 (MDA-MB-453; Homo sapiens, MDA-MB-453 (Non-TNBC), 72-hour treatment): > 10 µM
inhibitory effect at the highest concentration tested (MDA-MB-453; MDA-MB-453, highest concentration tested, 72 hours): did not show any inhibitory effect
IC50 (ZR-75-1; Homo sapiens, ZR-75-1 (Non-TNBC), 72-hour treatment): > 10 µM
inhibitory effect at the highest concentration tested (ZR-75-1; ZR-75-1, highest concentration tested (so in the source), 72 hours): did not show any inhibitory effect
